Work on `CCOc1nc2c(cnn2CC)nc1C(=O)NN1CCCCC1` yielded a melting point of 114 to 115 °C.
Work on `COc1ccc(CCNC(=O)C(F)(F)F)cc1OC` yielded a melting point of 93 °C.
`COC[C@@H](O)[C@@H](O)[C@H](OC)[C@@H](O)C=O` showed a melting point of 113 to 115 °C.
Compound `CCOC(=O)c1cn2c3c(cc(I)cc3c1=O)OC(c1ccccn1)C2` (stereo unspecified) has a melting point of 224 to 225 °C.
Compound `C#CC(CC)(CC)NC(N)=O` has a melting point of 108 °C.
Compound `Cc1c(C(=O)NCc2ccc3c(Br)c(OCc4nnn[nH]4)ccc3c2)oc2ccccc12` has a melting point of 212 to 215 °C.
In the case of `Nc1ncc2cc(-c3c(Cl)cccc3Cl)c(N)nc2n1`, the melting point is reported as 325 to 332 °C.
`CCOC(=O)C(=Nc1ccccc1)c1cccn1C` gave a melting point of 69 to 71 °C.
`CCC(=O)Nc1c(C(=O)c2ncccc2CO)[nH]c2cc(Cl)ccc12` showed a melting point of 198 to 199 °C.
`O=C(O)C(CC1CCCC1)c1ccc(-c2cccnc2)cc1` (stereo unspecified) gave a melting point of 136 to 138 °C.
With `CCOCc1nc2c(N)nc3cc(N4CCCC4=O)ccc3c2n1CCCOC(C)C` the melting point was 165 to 167 °C.
For `Cc1cc(Oc2ncc(C(F)(F)F)cc2Cl)nn1C(=O)N(C)C`, the melting point was 102 to 104 °C.
`CN1CCN(c2ccc(-c3nc4c(N[C@H]5[C@@H](C(N)=O)[C@@H]6C=C[C@H]5C6)c(Br)cnc4[nH]3)cc2)CC1` showed a melting point of 215 to 218 °C.
In the case of `CN1OCCN(c2ccc(Cl)c(C(F)(F)F)c2)C1=O`, the melting point is reported as 72 to 73 °C.
Compound `CC(C)C[C@H](NC1CCOCC1)C(=O)O` has a melting point greater than 300 °C.
Work on `O=C(c1ccc(C(=O)N2CC3COCC3C2)cc1)N1CC2COCC2C1` (stereo unspecified) yielded a melting point of 192 to 193 °C.
Compound `COC(C)(C)CN1CCC(CNC(=O)c2cc(Cl)c(N)n3cc(C)nc23)CC1` has a melting point of 211 °C.
In the case of `COC(=O)c1cccc(-c2nc(=O)c3ccccc3s2)c1`, the melting point is reported as 164 °C.
With `CCc1ccc(COc2cccc3c2CN(C2CCC(=O)NC2=O)C3=O)cc1` (stereo unspecified) the melting point was 158 to 160 °C.
Compound `COc1cc(-c2cnc3[nH]cc(C(=O)C(C)C)c3n2)cc(OC)c1OC` has a melting point of 189 to 190 °C.
With `COc1ccc(-c2nc(C)c(C(N)=O)s2)cc1` the melting point was 180 °C.
Compound `CCOC(C(=O)O)N1CCN2c3ccccc3Cc3ccccc3C2C1` (stereo unspecified) has a melting point of 105 to 108 °C.
Compound `O=[N+]([O-])c1ccc2c(c1)SC1=NCCCN12` has a melting point of 248 °C.
Work on `O=C1c2ccccc2CN1C1CCNCC1` yielded a melting point of 144 to 146 °C.
For `O=C1N(Cc2nsc(Cl)n2)c2cccc(Cl)c2C12COc1cc3c(cc12)OCO3` (stereo unspecified), the melting point was 174 to 176 °C.
Work on `Nc1cccc(C(=O)N(CCN2CCC(C(=O)c3ccc(F)cc3)CC2)c2ccc(F)cc2)c1` yielded a melting point of 159 to 162 °C.
Work on `COc1ccc(-c2c3ccccc3cc3sc4ccccc4c23)cc1C#N` yielded a melting point of 230 to 232 °C.
In the case of `NCCCc1cccnc1C(N)=O`, the melting point is reported as 153 to 156 °C.
Compound `CCOC(=O)c1c(-c2ccc(F)cc2)c(-c2ccc(F)cc2)c(C=O)n1C(C)C` has a melting point of 92 to 94 °C.
In the case of `CON=C(C)c1ccc(NS(C)(=O)=O)c(Sc2ccc(F)cc2F)c1`, the melting point is reported as 110 to 111 °C.
For `O=C1N[C@H](Cc2ccc(C(F)(F)F)cc2)[C@H](c2cccc(F)c2)O1` (racemic), the melting point was 143 to 144 °C.
In the case of `COc1ccc(C[C@@H]2COc3ccc(OCc4nc5cc(F)ccc5s4)cc3[C@@H]2O)cc1C(=O)O` (relative stereo), the melting point is reported as 149 to 151 °C.
For `CCCc1c2c(nn1-c1ccccc1)c(=O)[nH]c1ccccc12`, the melting point was greater than 300 °C.
With `O[C@H]1CN(Cc2ccccc2)CC[C@@H]1c1ccc(Br)cc1` (racemic) the melting point was 125 to 129 °C.
`Cc1oc(-c2ccccc2)nc1CCc1nc(COc2ccccc2CC(=O)O)co1` gave a melting point of 109 to 110 °C.
Work on `CC(=O)Nc1ccc(C=CC2=NNC(=O)SC2)cc1` yielded a melting point of 235 to 240 °C.
Work on `O=C(O)C1=CC(CF)(CF)Oc2ccc([N+](=O)[O-])cc21` yielded a melting point of 171 to 172 °C.
With `O=S(=O)(c1ccc(Br)cc1)N1CCC1` the melting point was 145 °C.
Work on `CS(=O)(=O)c1ccc(-c2nc(C(F)(F)F)nc(NN)c2-c2ccc(Cl)cc2)cc1` yielded a melting point of 266 to 269 °C.
For `CC(CCCCCOCCc1ccccc1)NCC(O)c1ccc2c(n1)COC(c1ccccc1)O2` (stereo unspecified), the melting point was 61 to 67 °C.
`CN=C(NC#N)Nc1ccc2c(c1)CCC1(C)CC(=O)NN=C21` (stereo unspecified) showed a melting point of 269 °C.
With `O=C(O)C1CCc2c(oc3ccc([N+](=O)[O-])cc23)C1` (stereo unspecified) the melting point was 229 to 232 °C.
With `CCOC(=O)C(C)OCc1cc2cc(Cl)ccc2n1S(=O)(=O)c1cc(OC)ccc1OC` (stereo unspecified) the melting point was 118 to 120 °C.
`CC(C)CNC(=O)/C=C/C=C/CCCCCCOCc1cccc(C(F)(F)F)c1` showed a melting point of 48 to 50 °C.
`CN1CCCC(O)(c2nccnc2Cl)C1` (stereo unspecified) showed a melting point of 111 to 112 °C.
For `CCCCc1c(OCOC(=O)C(C)(C)C)n(-c2ccccc2)n(-c2ccccc2)c1=O`, the melting point was 83 to 85 °C.
Work on `COc1cc(C(C)C(=O)O)ccc1-c1ccc(F)cc1` (stereo unspecified) yielded a melting point of 133 to 136 °C.
For `CC(=O)CC(=O)N[C@@H](CC(=O)O)C(=O)O`, the melting point was 127 to 130 °C.
Compound `O=C1N=C(c2ccc(C(=O)Cl)cc2)C(c2ccc(C(=O)Cl)cc2)O1` (stereo unspecified) has a melting point greater than 300 °C.
`O=C(NCC(=O)N(c1ccccc1)c1ccccc1)Nc1cccc(Cl)c1Cl` gave a melting point of 210 °C.
In the case of `COc1cc(C(=O)N2CCC(CCN3CCCN(c4nc5ccccc5n4CCCC(C)=O)CC3)(c3ccccc3)C2)cc(OC)c1OC` (stereo unspecified), the melting point is reported as 95 to 112 °C.
For `O=C1Nc2ccccc2C(=NO)C1=O`, the melting point was 241 to 242 °C.
In the case of `CC(C)c1nc2c(c(-c3ccc(F)cc3)c1CO)CCCC2(C)C`, the melting point is reported as 146 to 149 °C.
With `CCC(CC)c1nn(-c2ccc(C(F)(F)F)nn2)cc1CCCOc1c(CC(=O)O)cccc1OC` the melting point was 81 to 82 °C.
Work on `CCOc1ccc2nc(C)cc(=O)n2c1C` yielded a melting point of 112 to 114 °C.
`O=C(NCc1ccccc1)C1=C(c2ccccc2)C(c2ccccc2)OC1=O` (stereo unspecified) gave a melting point of 173 to 175 °C.
In the case of `CC(=O)c1ccc(Cc2c(Cl)cc(N)cc2Cl)cc1`, the melting point is reported as 97 to 98 °C.
For `CC=CN1CC([N+](=O)[O-])=CN(C(C)c2ccc(Cl)nc2)C1(C)N` (stereo unspecified), the melting point was 148 to 150 °C.
With `Cc1cccc(C(=O)NCc2cccc3c2CN(C2CCC(=O)NC2=O)C3=O)c1` (stereo unspecified) the melting point was 253 to 255 °C.
Compound `CNC(=O)C=C(c1ccc(C#N)cc1)n1ccnc1` has a melting point of 172 to 180 °C.
Work on `C[C@@H](O)C(O)(Cn1ccnc1)c1ccc(F)cc1F` (stereo partly specified) yielded a melting point of 73 to 76 °C.
With `CN(C)c1[nH]c(=S)n(C2CCc3ccccc3C2)c1N(C)C` (stereo unspecified) the melting point was 182 to 184 °C.
`Cc1ccc2c(c1)c1c(n2C(=O)c2ccc(Cl)cc2)CCC(C(=O)O)C1` (stereo unspecified) showed a melting point of 211 to 214 °C.
`N#Cc1cc(C(=O)NN2CCOCC2)ccc1OCC(=O)Nc1ccc(Cl)cn1` gave a melting point of 165 to 167 °C.
Work on `CCc1c(C(=O)c2cc(C)cc(C)c2)n(C/C=C/CO)c(=O)[nH]c1=O` yielded a melting point of 172 to 173 °C.
Compound `COc1ccc(-c2nnc(NC3CCN(Cc4ccccc4)CC3)c3cc(OC)cc(OC)c23)cc1` has a melting point of 168 °C.
`Cc1ccc(-c2csc(-c3ccc4c(c3)C(C)(C)CCC4(C)C)c2)cc1` showed a melting point of 135 to 136 °C.
Work on `COc1ccccc1C(=O)Nc1ccc(F)cc1` yielded a melting point of 79.6 to 80.2 °C.
Compound `C#CC[C@]12CCC(=O)C=C1CC[C@@H]1[C@@H]2CC[C@]2(C)C(=O)CC[C@@H]12` has a melting point of 174 to 175 °C.
`CSc1cnc2ccccc2c1` showed a melting point of 40 °C.
`c1ccc(COc2ccc3c(c2)OC[C@@H](c2ccccc2)[C@H]3c2ccc(OCCCCCCN3CCOCC3)cc2)cc1` (racemic) showed a melting point of 85.7 to 87.5 °C.
For `O=C(O)CCCCCCc1ccc(Cl)cc1`, the melting point was 75 to 78 °C.
`COc1ccc2cc(-c3ccc(Br)cc3)[nH]c(=O)c2c1` showed a melting point greater than 250 °C.
`c1n[nH]c2c1CCc1[nH]ncc1-2` showed a melting point of 219 to 221 °C.
`CCCC1=C(C(=O)OCC)C(c2ccccc2OC2CCCC2)c2c[nH]nc2N1` (stereo unspecified) gave a melting point of 195 °C.
Work on `Cn1cc(-c2cc3cccnc3[nH]2)c2cc(OC3(C(N)=O)CCC3)ccc21` yielded a melting point of 267 to 268 °C.
`C=CC(=O)Oc1cccc(O)c1O` gave a melting point of 92 to 95 °C.
In the case of `COC(=O)c1cc2cc(C3OCCO3)ccc2[nH]1`, the melting point is reported as 71 to 72 °C.
Work on `CON=C(C(=O)OC)c1cccc(OC)c1` yielded a melting point of 66 to 68 °C.
Compound `O=c1[nH]c(CCCN2CCCC2)cc2ccccc12` has a melting point of 117 to 119 °C.
Work on `Oc1cc(-c2nn3c(c2Cl)CCCC3)c(F)cc1Cl` yielded a melting point of 177 to 178 °C.
With `COc1ccc(-c2c(C(=O)O)n(Cc3cc4c(cc3Cl)OCO4)c3ccccc23)c(OCC(=O)O)c1` the melting point was 61 to 62 °C.
For `O=C1OC(=O)c2cc3cccnc3c3cc([N+](=O)[O-])cc1c23`, the melting point was 268 to 269 °C.
Compound `Cc1cc(C)c2nnn(C(=O)N3CCOCC3)c2c1` has a melting point of 115 °C.
`NCc1ccc2cc(O)ccc2c1` showed a melting point of 188 to 192 °C.
With `COc1ccc(-c2nn(C3CCC3)c3c(C(F)(F)F)cccc23)c(OC)c1` the melting point was 109 to 110 °C.
Compound `CCCCCCCCCCCCCCC(=O)CCl` has a melting point of 52.5 to 53.5 °C.
`CCCCC(=N)NC(=O)Nc1ccc(OC)cc1` showed a melting point of 144 to 145 °C.
In the case of `COc1ccc(C(C)(C)C)cc1NC(=O)Nc1ccc(-c2cnc3c(c2)NC(=O)CO3)c2ccccc12`, the melting point is reported as greater than 200 °C.
In the case of `CC(=O)OCC1OC(n2c(Cl)nc3ccc(Cl)cc32)C(OC(C)=O)C1OC(C)=O` (stereo unspecified), the melting point is reported as 155 to 157 °C.
In the case of `CN[C@@H]1CN(c2c(F)cc3c(=O)c(C(=O)O)cn([C@@H]4C[C@@H]4F)c3c2C)C[C@@H]1C(C)C`, the melting point is reported as 168 to 171 °C.
`COC(=O)Cn1c(=O)c(-c2c(Cl)cccc2Cl)cc2cnc(N)nc21` showed a melting point of 188 to 190 °C.
Compound `CN(Cc1ccc([N+](=O)[O-])cc1)Cc1nc(-c2cc(C(C)(C)C)c(O)c(C(C)(C)C)c2)cs1` has a melting point of 111 to 112 °C.
In the case of `CC(C)(C)C(=O)C(C(c1ccc(Cl)cc1)n1cncn1)n1cncn1` (stereo unspecified), the melting point is reported as 157 to 161 °C.
`Nc1cccc(CCCOCCCCCCNCC(O)c2cc(Cl)c(N)c(Cl)c2)n1` (stereo unspecified) gave a melting point of 62 to 65 °C.
`Cc1ccc(C(=O)Nc2ccc(S(N)(=O)=O)cc2)c(SSc2cc(C)ccc2C(=O)Nc2ccc(S(N)(=O)=O)cc2)c1` showed a melting point of 319 to 320 °C.
With `COc1ccc(C2OC(=O)c3cc(OC)c(OC)c(OC)c32)cc1OC` (stereo unspecified) the melting point was 141 to 142 °C.
For `CNC(=O)C(=NOCF)c1ccccc1COc1ccccc1C`, the melting point was 86 to 88 °C.
For `CC(=O)c1c(C)[nH]c(-c2ccccc2)c1N=Cc1ccc(Cl)cc1`, the melting point was 214 to 215 °C.
With `CS(=O)(=O)c1ccc(/C(=C\C2CCCCC2)C(=O)O)cc1C(F)(F)F` the melting point was 62 to 64 °C.
For `CCS(=O)(=O)N1CCN(c2ccc(NC(=O)c3cc(=O)c4cc(F)cc(N5CCN(C)CC5)c4o3)cc2)CC1`, the melting point was 233 to 234 °C.

Source: a melting point compilation (Tetko et al.; mined from patent text by program, amines drawn as free bases though some values may be those of a salt)
